From patent US7479483B2, “Tumor-targeted drug delivery systems and uses thereof” (G. Gaslini Children's Hospital, priority 2003, dated 2009)

Tested on: SH-SY5Y adrenal tumors
Test: In vivo therapeutic studies, orthotopic neuroblastoma xenograft
Design: species or system SCID mice
Settings: orthotopic SH-SY5Y model; free DXR by standard or metronomic dosing
Description: Five-week-old female SCID mice were purchased from Harlan Laboratories (Harlan Italy-S. Pietro al Natisone, UD). Mice (6-8 mice/group) were anaesthetised and injected with the different NB cell lines (2.5×10^6 cells in 20 μl of HEPES buffer), after laparatomy, in the capsule of the left adrenal gland. […] Mice were monitored at least two times weekly for evidence of tumor development, tumor size was quantified, and evidence of tumor-associated morbidity was noted.
2.5×10^6 SH-SY5Y cells were injected orthotopically in the left adrenal gland of mice. […] At various time-points, mice were sacrificed and tumors were measured with calipers. Tumor volumes were calculated by the formula π/6 [w1× (w2)^2], where w1 represented the largest tumor diameter and w2 represented the smallest tumor diameter. The body weight and general physical status of the animals were recorded daily and the mice were terminated when tumor reached 1000-1200 mm^3. […] Weight due to tumor burden was calculated by subtracting the normal wet organ weight from each tumor-bearing organ. In some experiments, mice were monitored routinely for weight loss, and survival times were used as the main criterion for determining treatment efficacy.
The statistical significance of differential findings between experimental groups and controls was determined by Student's t-test and considered significant if two-tailed P values were <0.05. […]

**Q.** For `COc1cccc2c1C(=O)c1c(O)c3c(c(O)c1C2=O)C[C@@](O)(C(=O)CO)C[C@@H]3O[C@H]1C[C@H](N)[C@H](O)[C@H](C)O1` [free DXR, doxorubicin], which therapeutic effect is on record?
**A.** lack of therapeutic effect
